Test results from patent US20240115582A1, “USE OF SODIUM TRANS-[TETRACHLORIDOBIS(1H-INDAZOLE)RUTHENATE(III)] FOR TREATING CANCERS” (Bold Therapeutics Inc., priority 2020, published 2024).

Legend:
BRAFMT CRC cells [1] = assay: Combination of BOLD-100 with ATRi, apoptosis (PARP/cleaved caspase-3 WB, caspase 3/7 activity, PI flow cytometry); assay type: cell-based; conditions: for cell death following BOLD-100 treatment: co-treated with BOLD-100 for 48 h, BRAFMT CRC; for apoptosis when combined with BOLD-100: in particular in BRAFMT CRC cells
Method: HT-29 and VACO432 CRC cells were co-treated with BOLD-100 and ATRi AZD6738, M4344 or Berzosertib for 48 h and apoptosis was assessed using WB analyses for PARP and cleaved caspase-3 (A) and caspase 3/7 activity assays (B). C. BRAFMT CRC cells VACO432, COL0205 and LIM2405 were co-treated with BOLD-100 and ATRi AZD6738, M4344 or Berzosertib for 48 h and apoptosis assessed by PI flow cytometry.

BRAFMT CRC cells [2] = assay: Cell death / caspase 3/7 activity after BOLD-100; assay type: cell-based
Method: (§1) Methods: Cell Titre Glo, Annexin V/PI high content screening, Flow Cytometry, Western blotting, Caspase 8, 3/7 activity, ROS-Glo^a H2O2, RNAi assays were used. RNA seq and bioinformatic analyses were performed on BOLD-100-treated BRAFMT/WT CRC cells, using the Illumina Novoseq platform and Reactome Pathway Analysis.
A.: Positive hits for primary siRNA screen against 178 target TSG. sRNA was carried out for 24 h, followed by treatment with BOLD-100 for 48 h. Forty-Six targets were identified, resulting in either increased sensitivity or resistance to BOLD-100 (based on robust z-score ±1). B. Positive hits from secondary siRNA screen using 2 additional siRNA sequences against 46 targets. C. CRC cells were pre-incubated with DMSO or 20 μM of the pan-caspase inhibitor, z-VAD-FMK for 3 h followed by treatment with BOLD-100 for 48 h following which, apoptosis was assessed by WB analyses for PARP (top) and caspase-3/7 activity assay (bottom). […] Apoptosis was assessed by WB analysis for PARP (left) and caspase-3/7 activity (right). […] Apoptosis was determined by WB for PARP (left) and caspase-3/7 activity levels (right).
A. BRAFMT CRC cells were treated with BOLD-100 for the indicated time and ATR/KAP1/CKH1/CHK2 expression/activity measured by WB. B. CRC cells were co-treated with BOLD-100 and AZD6738 for 48 h and phosphorylation/expression of ATR/KAP1 and the downstream kinases measured. […]

[3] = system: pATR^T1989, pChk1^S345 and γH2AX; assay: Western blotting of ATR/CHK1 DNA damage signalling; assay type: cell-based
Method: as §1
(§2) A. BRAFMT CRC cells were treated with BOLD-100 for the indicated time and ATR/KAP1/CKH1/CHK2 expression/activity measured by WB. B. CRC cells were co-treated with BOLD-100 and AZD6738 for 48 h and phosphorylation/expression of ATR/KAP1 and the downstream kinases measured. C. CRC cells were treated with BOLD-100 for the indicated times and generation of ROS measured using a ROS-Glo™ H2O2 assay. D. and E. WB and caspase 3/7 activity in cells pre-treated with NAC for 3 h followed by treatment with BOLD-100 for an additional 24h.

Degradation in water = assay type: physicochemical
Method: One skilled in the art will recognize that limiting this degradation reaction would be advantageous to obtaining the highest purity product. […] In one aspect of the invention, the sodium trans-[tetrachlorobis(1H-indazole)ruthenate (III)] solution is cooled to 4° C. during the formulation process. In another aspect of the invention, the sodium trans-[tetrachlorobis(1H-indazole)ruthenate (III)] solution is cooled to 2-8° C. during the formulation process. In another aspect of the invention, the sodium trans-[tetrachlorobis(1H-indazole)ruthenate (III)] solution is cooled to 2-15° C. during the formulation process.

GRP78, CHOP = assay: Western blotting of UPR markers after BOLD-100; assay type: cell-based; conditions: treatment with BOLD-100
Method: as §1
(§3) As illustrated in FIG. 2. BRAFMT, CMS1 CRC cells show increased sensitivity to treatment with BOLD-100. Upper: A. BRAFMT V600E HT-29 cells were treated with BOLD-100 for the indicated time and GRP78, CHOP and PARP levels determined by Western blotting (WB). B. HT-29 cells were treated with BOLD-100 for the indicated times and HSPA5, ATF4 and DDIT3 mRNA levels quantified using RT-PCR. Raw values were normalised to the expression of housekeeping genes ACTB and GAPDH and analysed using the ΔΔCT method. Lower: A. CRC cells were treated with increasing concentrations of BOLD-100 and cell viability determined using CellTitre-Glo® assay. IC50 was calculated using Prism software package. B. CRC cells were treated with BOLD-100 for 48 h. Apoptosis was assessed using Annexin V/propidium iodide (PI) staining by high-content screening. The graph indicates the percentage of positive stained cells following treatment with 100 μM BOLD-100. Mean of 3 independent experiments is shown.

BRAFMT CRC cells [4] = assay: ROS-Glo H2O2 assay; assay type: cell-based
Method: as §1, §2

BRAFMT, MSS CRC cells = assay: CellTitre-Glo and Annexin V/PI sensitivity studies; assay type: cell-based; conditions: isogenic paired and non-isogenic V600E BRAFMT and BRAFWT panel
Method: Materials: A panel of isogenic paired and non-isogenic V600E BRAFMT and BRAFWT cells were used. BOLD-100, a ruthenium-based small molecule inhibitor, was obtained from BOLD Therapeutics. A FDA approved compound library was used.
as §1
as §3, with “The graph indicates the percentage of positive stained cells following treatment with 100 μM BOLD-100. Mean of 3 independent experiments is shown.” left out

BRAFMT CRC cells [5] = assay: Combination of BOLD-100 with ATRi, cell viability (CellTitre-Glo, clonogenic survival); assay type: cell-based; conditions: in particular in BRAFMT CRC cells
Method: FDA approved drug screen targeting the significant pathways deregulated following BOLD-100 treatment in BRAFMT CRC. BRAFMT HT-29 (A) and VACO432 (B) cells were co-treated with BOLD-100, IC10, IC20, IC30 doses of 60 FDA approved drugs alone or in combination with BOLD-100 for 72 h and cell viability determined using the CellTitre-Glo® assay. Robust z-scores were calculated for combination treatment and normalized to effect of 50 μM BOLD-100. Combinations with r-Z score of <−1 were considered to enhance sensitivity to BOLD-100 treatment. Cell viability for combined BOLD-100/AZD6738 treatment was graphed using GraphPad Prism 8.0. C. Clonogenic survival assays in BRAFMT LIM2405, VACO432 and RKO CRC cells following co-treatment with BOLD-100 and AZD6738 for 14 days. Survival was graphed using GraphPad Prism 8.0.

## CNCc1ccc(-c2cc(-c3nc(-c4ccc(S(=O)(=O)C(C)C)cc4)cnc3N)on2)cc1 [Berzosertib]
BRAFMT CRC cells [1]
  cell death following BOLD-100 treatment: increase cell death

## [Cl][Ru]([Cl])([Cl])[Cl].[Na+].c1ccc2[nH]ncc2c1.c1ccc2[nH]ncc2c1 [BOLD-100, Sodium trans-[tetrachloridobis(1H-indazole)ruthenate(III)]]
BRAFMT CRC cells [2]
  type of cell death: caspase-8 dependent cell death
[3]; BRAFMT cells
  pATR^T1989, pChk1^S345 and γH2AX expression levels: rapid and potent increases
Degradation in water
  stability in water: can degrade in water to Compound A
GRP78, CHOP
  GRP78 levels: early decreases
  expression levels of the endoplasmic reticulum stress protein CHOP: increases
BRAFMT CRC cells [4]
  ROS: acute increases in ROS
BRAFMT, MSS CRC cells
  IC50: 9.25 to 31 µM

## Nc1nn2cc(F)cnc2c1C(=O)Nc1cncc(F)c1N1CCC(C(=O)N2CCN(C3COC3)CC2)CC1 [M4344]
BRAFMT CRC cells [5]
  interaction when combined with BOLD-100: strong synergy
BRAFMT CRC cells [1]
  cell death following BOLD-100 treatment: increase cell death
  apoptosis when combined with BOLD-100: apoptosis

## CC(=O)N[C@@H](CS)C(=O)O [NAC]
BRAFMT CRC cells [2]; ROS scavenger
  effect on cell death following BOLD-100 treatment: rescued cell death
[3]; ROS scavenger, BRAFMT CRC cells
  effect on BOLD-100 induced CHOP, pATR^T1989, pChk1^S345 and γH2AX levels: abrogated

## C[C@@H]1COCCN1c1cc(C2([S@](C)(=N)=O)CC2)nc(-c2cc[nH]c3nccc2-3)n1 [AZD6738]
BRAFMT CRC cells [5]
  interaction when combined with BOLD-100: strong synergy
BRAFMT CRC cells [1]
  cell death following BOLD-100 treatment: increase cell death
  apoptosis when combined with BOLD-100: apoptosis
